Data as given in patent US7507792B2, “MDA-7 proteins and methods of use thereof” (The Trustees of Columbia University In The City of New York, priority 1993, dated 2009).
Where two headings read alike, the source gives them in different places.

What was measured:
Type in all cases: cell-based, human
[1] = test system: mda-6 (WAF1/CIP1/SDI1); test: Induction of mda-6 (WAF1/CIP1/SDI1) expression in HL-60 cells (Northern blotting, RT-PCR); details: CHX 10 μg/ml 1, 3, 6 or 10 h, without or with TPA 3 nM
Procedure: HL-60 cells were originally provided by Dr. R. C. Gallo (National Cancer Institute, Bethesda, Md.) (Collins et al., 1978; Huberman & Callaham, 1979). HL-60 cells designated HL-525 were derived by cloning HL-60 cells after subculturing 102 times in the presence of increasing concentrations (up to 3 μM) of TPA at 5- to 8-day intervals (Homma et al., 1986; Mitchell et al., 1986). […] Prior to the experiments described in this study, the HL-525 cells were subcultured more than 20 times in the absence of TPA. Cells were grown in 100-mm tissue culture dishes in RPMI 1640 medium supplemented with 20% fetal bovine serum, penicillin (100 units/ml) and streptomycin (100 μg/ml) (Grand Island Biological Co., NY) at 37° C. in an atmosphere of 5% CO2 in air in a humidified incubator. The 1,25-(OH)2D3(Vit D3) and TPA were dissolved in a final concentration of 0.01% DMSO, and all-trans retinoic acid (RA) was dissolved in 0.1% DMSO in culture medium. […]
RNA was purified by centrifugation through a CsC1 cushion as described by Chirgwin et al. (1979). […] Following hybridization, the filters were washed and exposed for autoradiography (Reddy et al., 1991; Su et al., 1991; Jiang et al., 1992). mda-6 and GAPDH gene expression were also determined by reverse transcription-polymerase chain reaction (RT-PCR) as described (Adollahi et al. 1991; Lin et al., 1994). […]

[2] = test system: mda-6 (WAF1/CIP1/SDI1); details: HL-525; CHX 10 μg/ml 1, 3, 6 or 10 h, without or with TPA 3 nM
Procedure: HL-60 cells were originally provided by Dr. R. C. Gallo (National Cancer Institute, Bethesda, Md.) (Collins et al., 1978; Huberman & Callaham, 1979). HL-60 cells designated HL-525 were derived by cloning HL-60 cells after subculturing 102 times in the presence of increasing concentrations (up to 3 μM) of TPA at 5- to 8-day intervals (Homma et al., 1986; Mitchell et al., 1986). […] Prior to the experiments described in this study, the HL-525 cells were subcultured more than 20 times in the absence of TPA. Cells were grown in 100-mm tissue culture dishes in RPMI 1640 medium supplemented with 20% fetal bovine serum, penicillin (100 units/ml) and streptomycin (100 μg/ml) (Grand Island Biological Co., NY) at 37° C. in an atmosphere of 5% CO2 in air in a humidified incubator. The 1,25-(OH)2D3(Vit D3) and TPA were dissolved in a final concentration of 0.01% DMSO, and all-trans retinoic acid (RA) was dissolved in 0.1% DMSO in culture medium. […] Control cultures were treated with DMSO at a final concentration of 0.1% in culture medium. For experiments designed to test the effect of DMSO on HL-60 and HL-525 cells, DMSO was added to tissue culture medium at a final concentration of 1%. Stock solutions of CHX (10 mg/ml) were prepared in culture medium. CHX was added at a final concentration of 10 μg/ml. To examine a requirement for protein synthesis on mda-6 gene expression, HL-60 or HL-525 cells were seeded into 150 mm Petri dishes (5×10^5 cells/ml) in 30 ml of medium. CHX was added to a final concentration of 10 μg/ml 15 min prior to the addition of TPA to 3 nM. Cells were harvested at various times after addition of TPA for subsequent RNA isolation and analysis.
RNA was purified by centrifugation through a CsC1 cushion as described by Chirgwin et al. (1979). Ten μg of RNA was denatured with glyoxal/DMSO, electrophoresed on 1.0% agarose gels, transferred to nylon membranes, hybridized to a ^32P-labeled mda-6 probe (Jiang and Fisher, 1993) and then after stripping the membrane hybridized to a ^32P-labeled rat GAPDH probe (Fort et al., 1985), as described previously (Reddy et at., 1991; Su et al., 1991; Jiang et al., 1992). Following hybridization, the filters were washed and exposed for autoradiography (Reddy et al., 1991; Su et al., 1991; Jiang et al., 1992). mda-6 and GAPDH gene expression were also determined by reverse transcription-polymerase chain reaction (RT-PCR) as described (Adollahi et al. 1991; Lin et al., 1994). Total cytoplasmic RNA was treated with 0.5 units DNase (Boehringer-Mannheim Biochemicals)/μg RNA in 15% glycerol, 10 mM Tris, pH 7.5, 2.5 mM MgCl2, 0.1 mM EDTA, 80 mM KC1, 1 mM CaCl2 and 1 unit/ml RNasin (Promega) at 30° C. for 10 min. RNA was extracted with phenol-chloroform, precipitated with sodium acetate/ethanol and RNA pellets were resuspended in diethylpyrocarbonate-treated H2O. One μg of total RNA was reverse transcribed with 200 units of murine leukemia virus reverse transcriptase (Bethesda Research Laboratories) in 20 μl containing 1 mM deoxyribonucleotide triphosphates, 4 mM MgCl2, 10 mM Tris, pH 8.3, 50 mM KC1, 0.001% gelatin and 0.2 μg oligo-dT primer. Samples were diluted to 100 μl with buffer containing 0.2 mM deoxyribonucleotide triphosphates, 2 mM MgCl2, 10 mM Tris, pH 8.3, 50 mM KC1 and 0.001% gelatin. […]

[3] = test system: MDA-6 (WAF1/CIP1/SDI1) protein; test: Immunoprecipitation of MDA-6 (WAF1/CIP1/SDI1) protein in HL-60 cells; details: TPA, DMSO (1%) or RA (1 μM), 12, 24, 48 and 72 h tested
Procedure: Immunoprecipitation analyses were performed as described previously (Duigou et al., 1991; Su et al. 1993). Logarithmically growing HL-60 cells were either untreated or treated for 12, 24, 48 or 72 h with TPA ([…]), RA (1 μM) or DMSO (1%) in 10-cm plates. Cultures were starved of methionine for 1 h at 37° C. in methionine-free medium, cells were concentrated by pelleting and labeled for 4 h at 37° C. in 1 ml of the same medium with 100 μCi of [^35S] (NEN; Express ^35S). After labeling, the cells were washed twice with ice-cold phosphate-buffered saline and lysed for 1 h on ice by the addition of RIPC (20 mM Tris-base, pH 7.5, 500 mM NaCl, 0.05% Nonidet P-40, 100 μg/ml phenylmethylsulfonyl fluoride and 0.02% sodium azide). The lysate was clarified by centrifugation in an Eppendorf microfuge at 10,000×g for 10 min at 4° C. Samples containing 4×10^6 counts were incubated with 2 μg of WAF1/CIP1 (C-19) (Santa Cruz Biotechnology) (or MDA-6 peptide-derived) rabbit polyclonal IgG or actin monoclonal antibody (Oncogene Sciences) with rocking at 4° C. for 24 h. The next day, 30 μl (packed volume) of protein G-agarose (Oncogene Sciences) was added to each tube, and incubation with rocking at 4° C. continued for another hour. The protein G pellets were then washed five times with 1 ml of ice-cold RIPC:phosphate-buffered saline (1:1, v/v). Thirty μl of sodium dodecyl sulfate-polyacrylamide gel electrophoresis buffer were added to the pellets, and the sample was heated at 87° C. for 3 min. The samples were loaded onto an 10% polyacrylamide gel and run overnight at 40 V. The gel contained Rainbow protein markers (Amersham) for sizing. Gels were fixed with 10% acetic acid plus 10% methanol for 30 min, incubated in DMSO for 30 min, incubated with 10% 2,5-diphenyloxazole in DMSO for 30 min, washed three times with cold water (10 min each), dried and exposed to film.

| Compound | mda-6 expression in the presence of cycloheximide [1] | mda-6 expression in the presence of cycloheximide [2] | time of treatment at which MDA-6 protein is detected [3] |
| --- | --- | --- | --- |
| C[C@@H]1C[C@@H]([C@H](O)CC2CC(=O)NC(=O)C2)C(=O)[C@@H](C)C1 [CHX, cycloheximide] | induction of mda-6 | induces mda-6 expression | – |
| C[S+](C)[O-] [DMSO, dimethyl sulfoxide] | – | – | 48 h |
